From US6790978B2, “Thyromimetic organic compounds” (Novartis AG, priority 1999, dated 2004)

Columns and labels:
[1] = biological target: triiodothyronine (T3) nuclear receptor; assay: T3 nuclear receptor binding assay (rat liver nuclei, [125I]-L-T3 displacement); conditions: 0.3 nM [125I]-L-T3, 22° C.
Method: The in vitro binding to T3 nuclear receptors is determined as follows:
Rat liver nuclei and plasma membrane preparations are obtained from Sprague-Dawley (CD) rats (Charles River Labs.) by differential centrifugation as described by Emmelot at al (Methods in Enzymology 31:75, Part A, 1974) with minor modificatons. The nuclear fraction obtained from the 275 ×g pellet is further purified as generally described by Spindler et al (J. Biol. Chem. 250:4118, 1975).
The novel test compounds are assayed for binding to the nuclei by the method of Spindler et al (J. Biol. Chem. 250:4118, 1975). The nuclei are incubated at 22° C. with 0.3 nM of [^125I]-L-triiodothyronine (L-T3). Parallel incubations are conducted with tubes containing, in addition to the nuclei and radioactive L-T3, either various concentrations of the test compounds or 3 μM of nonradioactive L-T3. The latter is used as a measure of nonspecific binding. The radio-activity bound to the nuclei is determined following centrifugation of the reaction mixture at 800×g for 7 minutes and washing of the pellet obtained. The amount of [^125I]-L-T3 specifically bound is determined by subtracting the amount nonspecifically bound (radioactivity contained in the nuclear pellet following incubation with excess (3 μM) non-radioactive L-T3. The concentration of test compound which inhibits the specific binding of [^125I]-L-T3 by 50 percent (IC50) is determined graphically from the reciprocal plot of the specifically bound [^125I]-L-T3 versus the various concentrations of the test compound.

Lp(a) = Lp(a) lowering activity in the normolipemic cynomolgus monkey; type: in vivo, cynomolgus monkey (Macaca fascicularis); conditions: normolipemic cynomolgus monkeys, 4 week treatment, daily oral dose of 75 μg/kg
Method: Cholesterol and Lp(a) lowering activity can be determined in the normolipemic cynomolgus monkey as follows:
Adult male and female cynomolgus monkeys (Macaca fascicularis) weighing 3-7 kg are used. Animals are individually housed and fed a standard monkey chow diet (Purina 5047) supplemented with fresh fruits and vegetables. Each animal serves as its own control and each dosing regime is followed by a wash out period. Test compounds were dissolved in ethanol, imbibed in fruit pulp and administered orally. Animals are dosed once a day with test compounds for a treatment period varying from 8 to 28 days. Blood samples are obtained after an overnight fast at baseline and at the end of the study. […] Plasma samples are divided into aliquots and stored at −70° C. until analyzed. Plasma concentrations of total cholesterol (TC) and triglycerides (TG) are determined by enzymatic methods using commercial kits (Sigma Diagnostics). High-density lipoprotein cholesterol (HDL-C) concentration is measured after precipitation of apoB-containing lipoproteins. Since the fasting plasma of cynomolgus monkeys on a chow diet contains negligible amounts of cholesterol in very low-density lipoprotein, the low-density lipoprotein cholesterol (LDL-C) concentration is calculated by subtracting HDL-C from TC. […] Quantification of Lp(a) is not affected by apo(a) size. […]

serum cholesterol [2] = assay: Cholesterol lowering activity in normocholesterolemic dogs; type: in vivo; conditions: dog, daily dose of about 10 μg/kg p.o.
From the text: Cholesterol lowering activity can also be evaluated in normocholesterolemic dogs fed regular chow following the procedure described above, by administration of test compound orally for 5 days.

serum cholesterol [3] = assay: Cholesterol lowering activity in the rat on a high cholesterol diet; type: in vivo; conditions: daily dose of about 20 μg/kg p.o.
Method: Cholesterol lowering activity is determined in the rat as follows:
Male Sprague-Dawley rats (230-250 g) (Taconic Farms) are maintained ad libitum on water and a high cholesterol diet (1.5% cholesterol and 0.5% cholic acid) for two weeks prior to and during the 7-day treatment period. Groups of animals are treated orally by gavage with the vehicle alone or with test compound for 7 consecutive days. After the last dose, animals are fasted for 18 hours and blood is collected. Blood samples are centrifuged at 2500 rpm for 10 minutes to prepare plasma for total cholesterol determination as well as LDL and HDL cholesterol concentrations. HDL values are determined after […] (Warnick and Albers, 1978). All samples are analyzed enzymatically for cholesterol with a diagnostic reagent kit (Sigma Chemical Co., St. Louis, Mo.). The analysis is performed on a Bio-Mek automated work station. LDL/VLDL fractions are precipitated in the following manner: 0.35 mL of plasma is aliquoted into Eppendorf tubes to which 12 μL of 2M manganese chloride, 11.2 μL of sodium heparin (Porcine Intestinal, 5000 units/mL), and 8.3 μL of normal saline are added. The samples are vortexed and are placed on ice for 15 minutes, then centrifuged at 4° C. for 10 minutes at 1300 rpm and the supernatant is enzymatically analyzed for cholesterol. […]

| IC50 [1] [nM] | SMILES | Lp(a) levels lowered (Lp(a)) | serum cholesterol lowering (serum cholesterol [2]) | serum cholesterol lowering (serum cholesterol [3]) |
| --- | --- | --- | --- | --- |
| ~0.04 | O=C(O)C(=O)Nc1cc(Br)c(Oc2ccc(O)c(S(=O)(=O)c3ccc(F)cc3)c2)c(Br)c1 [Example 39, N-{3,5-Dibromo-4-[3-(4-fluorobenzenesulfonyl)-4-hydroxyphenoxy]phenyl}oxamic acid] | – | – | – |
| ~0.17 | Cc1cc(NC(=O)C(=O)O)cc(C)c1Oc1ccc(O)c(S(=O)(=O)c2ccc(F)cc2)c1 [Example 26, N-{4-[3-(4-Fluorobenzenesulfonyl)4-hydroxyphenoxy]-3,5-dimethylphenyl}oxamic acid] | about 40% | significantly lowers serum cholesterol | significantly lowers serum cholesterol |
| ~1 | Cc1cc(NC(=O)CC(=O)O)cc(C)c1Oc1ccc(O)c(S(=O)(=O)c2ccc(F)cc2)c1 [Example 35, N-{4-[3-(4-Fluorobenzenesulfonyl)-4-hydroxyphenoxy]-3,5-dimethylphenyl}malonamic acid] | – | – | – |
| ~0.13 | Cc1cc(NC(=O)C(=O)O)cc(C)c1Oc1ccc(O)c(S(=O)(=O)c2ccc(Cl)cc2)c1 [Example 28] | – | – | – |
